This data set in a line: Dynamic viscosity of the amines (Anton Paar Stabinger SVM3000 viscometer). Type of data set: physicochemical.

For `CC(C)(C)NCCOCCO` [TBAEE, 2-(2-tert-butylaminoethoxy)ethanol, reference compound], the Dynamic viscosity (20 ° C.) is given as 58.4 mPa · s, the Dynamic viscosity (60 ° C.) amounted to 6.9 mPa · s and the Dynamic viscosity (80 ° C.) came out at 3.6 mPa · s.
`CN(C)CCOCCNC(C)(C)C` [TBAEEDA, 2-(2-tert-butylaminoethoxy)ethyl-N,N-dimethylamine]: the Dynamic viscosity stood at 5.4 mPa · s (20 ° C.), 2.5 mPa · s (40 ° C.), 1.6 mPa · s (60 ° C.) and 1.1 mPa · s (80 ° C.).

(Values after US20180272270A1, “AMINE COMPOUNDS FOR SELECTIVELY REMOVING HYDROGEN SULPHIDE” (BASF SE, priority 2015, published 2018).)
